From patent US9133220B2, “Boron-containing 5-arylidene-3,5-dihydro-4H-imidazol-4-ones” (Evrogen Joint Stock Company, priority 2012, dated 2015)
Converted amounts (≈) assume the structure as drawn. Read-outs that look alike come from different tables or passages of the source. Marks after values point to notes of the source that are not given here. Values belong to the molecule of their own block, whether it stands above or below them.

How the values were obtained:
[1] = cited from earlier work; for emission peak: widely used fluorescent dyes, approximate values
[2] = Measuring spectral characteristics (absorption and emission maxima, extinction coefficients); type: physicochemical
Protocol: (§1) To measure spectral characteristics of some compounds with the formula I weighted portions of compounds p-NH2-BDI-BF2, p-dimethylamino-BDI-BF2, p-diethylamino-BDI-BF2, p-HOBDI-BF2, di-F-p-HOBDI-BF2, p-diethylamino-BDI-dimethylaminoethenyl-BF2 and p-HOBDI-dimethylaminoethenyl-BF2 were dissolved in water, ethanol and acetonitrile. Absorption spectra were measured on Varian Cary 100 Bio spectrophotometer, fluorescence spectra were measured on Varian Cary Eclipse scanning spectrofluorometer.
The values of absorption and emission maxima and molar extinction coefficients for examples of compounds with the formula I in the indicated solvents are listed in a Table 2. Emission peaks of the investigated compounds settle into a rather wide range from 485 nm for p-HOBDI-BF2 to 598 nm for p-diethylamino-BDI-dimethylamino-ethenyl-BF2.

[3] = Determination of solubility in water; type: physicochemical; details: thermodynamic from solid
Protocol: To determine the solubility in water of compounds an excess amount of analyzed substance was put in a known volume of a solvent and stirred for 5 hours at r.t. The obtained mixture was centrifuged, and the concentration of a compound in mother liquor was measured with spectrophotometric method on the base of molar extinction coefficients data.

[4] = Quantum yield of fluorescence; type: physicochemical
Protocol: as §1
The compounds p-NH2-BDI-BF2, p-HOBDI-BF2 (anionic form), di-Fp-HOBDI-BF2 (anionic form), p-diethylamino-BDI-dimethylaminoethenyl-BF2, p-HOBDI-dimethylaminoethenyl-BF2 (anionic form) have rather high quantum yields of fluorescence in water solutions.

[5] = Photoacidity: acidity constants of ground and excited states; type: physicochemical
Source text: Photoacidity is an ability to dissociate with formation of H^+ ion under the action of visible light. Photoacidity is characterized by constants of acidity of ground and excited states. Förster's equation describes the relationship between acidity constants of ground and excited states and energy of transfer between the states.
For compounds of the formula I, containing phenolic OH-group, high photoacidity—an ability to dissociate with formation of H^+ ion under the action of visible light—is a distinctive feature. […] (^1)((Z)-4-(2-(difluoroboryl)-3,5-difluoro-4-hydroxybenzylidene)-1,2-dimethyl-1H-imidazole-5(4H)-one)

[6] = Chemical stability at high pH; type: physicochemical; details: pH 11, 70° C., 2 hours
Source text: Compound of the general formula I differ from the majority of fluorescent dyes because of their high resistance to the action of different chemical factors—nucleophiles and high pH. […] It should be noted, that long-time heating in alkaline conditions may result in exchange of fluorine atoms from difluoroboryl residue to hydroxyl groups, however no significant change in absorption and fluorescence spectra is observed.

[7] = water, neutral form line, starred: only emission of deprotonated form can be measured due to high photoacidity
[8] = acidic and neutral pH values, r.t.
[9] = acidic and neutral values of pH

SMILES: CC1=N/C(=C\c2ccc(O)cc2)C(=O)N1C [p-HOBDI, (Z)-4-(4-hydroxybenzylidene)-1,2-dimethyl-1H-imidazole-5(4H)-one]
- Quantum yield ([1]; p-HOBDI, from D. Mandal et al., J. Phys. Chem. B 108, 1102 (2004), spans water, ethanol, acetonitrile columns): Quantum yield is less than 10^−4

SMILES: CCN1C(=CC=CC2=[N+](CCCCCC(=O)O)c3ccc(S(=O)(=O)O)cc3C2(C)C)C(C)(C)c2cc(S(=O)(=O)[O-])ccc21 [Cy3]
- emission peak [1]: 570 nm

SMILES: CC1=N/C(=C\c2cc(F)c(O)cc2B(F)F)C(=O)N1C [F-p-HOBDI-BF2, (Z)-4-(2-(difluoroboryl)-5-fluoro-4-hydroxybenzylidene)-1,2-dimethyl-1H-imidazole-5(4H)-one]
- Abs. peak ([2]; acetonitrile, anionic form): 522 nm
- Emis. peak ([2]; acetonitrile, anionic form): 543 nm
- Abs. peak ([2]; acetonitrile, neutral form): 397 nm
- Emis. peak ([2]; acetonitrile, neutral form): 468 nm
- ext. coef. ([2]; acetonitrile, neutral form): 28000 M⁻¹ cm⁻¹
- shift of emission and absorption spectra with change of more polar solvent (water) to less polar (ethanol, acetonitrile) ([2]; anionic form): bathochromic shift
- Abs. peak ([2]; ethanol, anionic form): 505 nm
- Emis. peak ([2]; ethanol, anionic form): 537 nm
- ext. coef. ([2]; ethanol, anionic form): 48000 M⁻¹ cm⁻¹
- Abs. peak ([2]; ethanol, neutral form): 408 nm
- Emis. peak ([2]; ethanol, neutral form): 482 nm
- ext. coef. ([2]; ethanol, neutral form): 24000 M⁻¹ cm⁻¹
- shift of emission and absorption spectra with change of more polar solvent (water) to less polar (ethanol, acetonitrile) ([2]; neutral form): hypsochromic shift
- Abs. peak ([2]; water, anionic form): 478 nm
- Emis. peak ([2]; water, anionic form): 528 nm
- ext. coef. ([2]; water, anionic form): 38300 M⁻¹ cm⁻¹
- Abs. peak ([2]; water, neutral form): 392 nm
- ext. coef. ([2]; water, neutral form): 31500 M⁻¹ cm⁻¹
- Emis. peak [2, 7]: 528* nm
- solubility at 5 h [3, 8]: ~1000 µM (≈ 282 µg/mL)
- solubility at 5 h [3, 9]: 1 µM (≈ 0.282 µg/mL)

SMILES: O=C1NC=N/C1=C\c1cccn1B(F)F [(Z)-4-((1-(difluoroboryl)-1H-pyrrol-2-yl)methylene)-1H-imidazole-5(4H)-one]
- Quantum yield of fluorescence ([1]; comparison values for known fluorophores): 0.81

SMILES: CCN(CC)c1ccc(/C=C2N=C(/C=C/N(C)C)N(C)C\2=O)c(B(F)F)c1 [(Z)-4-(4-(diethylamino)-2-(difluoroboryl)benzylidene)-2-((E)-2-(dimethylamino)vynil)-1-methyl-1H-imidazole-5(4H)-one]
- shift of emission and absorption spectra with change of more polar solvent (water) to less polar (ethanol, acetonitrile) [2]: hypsochromic shift
- Abs. peak ([2]; acetonitrile): 510 nm
- Emis. peak ([2]; acetonitrile): 583 nm
- Abs. peak ([2]; ethanol): 525 nm
- Emis. peak ([2]; ethanol): 588 nm
- Abs. peak ([2]; water): 525 nm
- Emis. peak ([2]; water): 598 nm
- Quantum yield of fluorescence ([4]; water): 0.35

SMILES: CCCCCCCCCCCCCCCCCCN1/C(=C\C=C\c2oc3ccccc3[n+]2CCCCCCCCCCCCCCCCCC)Oc2ccccc21.[O-][Cl+3]([O-])([O-])[O-] [DiO]
- emission peak [1]: 501 nm

SMILES: O=C1OC2(c3ccc(O)cc3Oc3cc(O)ccc32)c2ccc(N=C=S)cc21 [FITC]
- emission peak [1]: 521 nm

Continued, values first:

- Abs. peak ([2]; acetonitrile, anionic form): 521 nm
- Emis. peak ([2]; acetonitrile, anionic form): 540 nm
- Abs. peak ([2]; acetonitrile, neutral form): 402 nm
- Emis. peak ([2]; acetonitrile, neutral form): 469 nm
- ext. coef. ([2]; acetonitrile, neutral form): 31000 M⁻¹ cm⁻¹
- shift of emission and absorption spectra with change of more polar solvent (water) to less polar (ethanol, acetonitrile) ([2]; anionic form): bathochromic shift
- bathochromic shift of emission and absorption spectra relative to p-HOBDI ([2]; different solvents): 30-40 nm
- Abs. peak ([2]; ethanol, anionic form): 512 nm
- Emis. peak ([2]; ethanol, anionic form): 532 nm
- ext. coef. ([2]; ethanol, anionic form): 55000 M⁻¹ cm⁻¹
- Abs. peak ([2]; ethanol, neutral form): 416 nm
- Emis. peak ([2]; ethanol, neutral form): 483 nm
- ext. coef. ([2]; ethanol, neutral form): 25000 M⁻¹ cm⁻¹
- shift of emission and absorption spectra with change of more polar solvent (water) to less polar (ethanol, acetonitrile) ([2]; neutral form): hypsochromic shift
- Abs. peak ([2]; water, anionic form): 485 nm
- Emis. peak ([2]; water, anionic form): 520 nm
- ext. coef. ([2]; water, anionic form): 47000 M⁻¹ cm⁻¹
- Abs. peak ([2]; water, neutral form): 404 nm
- Emis. peak ([2]; water, neutral form): 485 nm
- ext. coef. ([2]; water, neutral form): 26000 M⁻¹ cm⁻¹
- Quantum yield of fluorescence ([4]; acetonitrile): 0.73
- fluorescence lifetime ([4]; acetonitrile): 3.2 ns
- Quantum yield of fluorescence ([4]; acetonitrile, anionic form): 0.73
- Quantum yield of fluorescence ([4]; water, anionic form): 0.54
- solubility at 5 h [3, 8]: ~1000 µM (≈ 264 µg/mL)
- solubility at 5 h [3, 9]: 1 µM (≈ 0.264 µg/mL)
- pKa ([5]; excited state): 2
- pKa ([5]; ground state, phenol group): 6.4
- effect of incubation on absorption and emission spectra [6]: doesn't affect significantly
SMILES: CC1=N/C(=C\c2ccc(O)cc2B(F)F)C(=O)N1C [p-HOBDI-BF2, (Z)-4-(2-(difluoroboryl)-4-hydroxybenzylidene)-1,2-dimethyl-1H-imidazole-5(4H)-one]

- Abs. peak ([2]; acetonitrile, anionic form): 519 nm
- Emis. peak ([2]; acetonitrile, anionic form): 542 nm
- Abs. peak ([2]; acetonitrile, neutral form): 392 nm
- Emis. peak ([2]; acetonitrile, neutral form): 460 nm
- ext. coef. ([2]; acetonitrile, neutral form): 26000 M⁻¹ cm⁻¹
- shift of emission and absorption spectra with change of more polar solvent (water) to less polar (ethanol, acetonitrile) ([2]; anionic form): bathochromic shift
- Abs. peak ([2]; ethanol, anionic form): 503 nm
- Emis. peak ([2]; ethanol, anionic form): 538 nm
- ext. coef. ([2]; ethanol, anionic form): 45000 M⁻¹ cm⁻¹
- Abs. peak ([2]; ethanol, neutral form): 400 nm
- ext. coef. ([2]; ethanol, neutral form): 21000 M⁻¹ cm⁻¹
- Emis. peak ([2]; ethanol, neutral form line, starred: only emission of deprotonated form can be measured due to high photoacidity): 538* nm
- shift of emission and absorption spectra with change of more polar solvent (water) to less polar (ethanol, acetonitrile) ([2]; neutral form): hypsochromic shift
- Abs. peak ([2]; water, anionic form): 484 nm
- Emis. peak ([2]; water, anionic form): 532 nm
- ext. coef. ([2]; water, anionic form): 44400 M⁻¹ cm⁻¹
- Abs. peak ([2]; water, neutral form): 400 nm
- ext. coef. ([2]; water, neutral form): 32000 M⁻¹ cm⁻¹
- Emis. peak [2, 7]: 532* nm
- Quantum yield of fluorescence ([4]; water, anionic form): 0.73
- solubility at 5 h [3, 8]: ~1000 µM (≈ 300 µg/mL)
- solubility at 5 h [3, 9]: 1 µM (≈ 0.3 µg/mL)
- pKa ([5]; excited state): < 0
- pKa* ([5]; excited state, listed as (Z)-4-(2-(difluoroboryl)-3,5-difluoro-4-hydroxybenzylidene)-1,2-dimethyl-1H-imid): lies in the negative region
- pKa* ([5]; excited state, listed as diF-p-HOBDI-BF2): in the range of negative values
- pKa ([5]; ground state, phenol group): 5.2
SMILES: CC1=N/C(=C\c2cc(F)c(O)c(F)c2B(F)F)C(=O)N1C [di-F-p-HOBDI-BF2, (Z)-4-(2-(difluoroboryl)-3,5-difluoro-4-hydroxybenzylidene)-1,2-dimethyl-1H-imidazole-5(4H)-one]

- Abs. peak ([2]; acetonitrile, anionic form): 555 nm
- Emis. peak ([2]; acetonitrile, anionic form): 598 nm
- Abs. peak ([2]; acetonitrile, neutral form): 444 nm
- Emis. peak ([2]; acetonitrile, neutral form): 502 nm
- shift of emission and absorption spectra with change of more polar solvent (water) to less polar (ethanol, acetonitrile) ([2]; anionic form): bathochromic shift
- Abs. peak ([2]; ethanol, anionic form): 529 nm
- Emis. peak ([2]; ethanol, anionic form): 587 nm
- Abs. peak ([2]; ethanol, neutral form): 450 nm
- Emis. peak ([2]; ethanol, neutral form): 505 nm
- shift of emission and absorption spectra with change of more polar solvent (water) to less polar (ethanol, acetonitrile) ([2]; neutral form): hypsochromic shift
- Abs. peak ([2]; water, anionic form): 502 nm
- Emis. peak ([2]; water, anionic form): 570 nm
- Abs. peak ([2]; water, neutral form): 467 nm
- Emis. peak ([2]; water, neutral form): 521 nm
- Quantum yield of fluorescence ([4]; water, anionic form): 0.27
SMILES: CN(C)/C=C/C1=NC(=C\c2ccc(O)cc2B(F)F)/C(=O)N1C [p-HOBDI-dimethylaminoethenyl-BF2, (Z)-4-(2-(difluoroboryl)-4-hydroxybenzylidene)-2-((E)-2-(dimethylamino)vynil)-1-methyl-1H-imidazole-5(4H)-one]

- shift of emission and absorption spectra with change of more polar solvent (water) to less polar (ethanol, acetonitrile) [2]: hypsochromic shift
- Abs. peak ([2]; acetonitrile): 451 nm
- Emis. peak ([2]; acetonitrile): 518 nm
- Abs. peak ([2]; ethanol): 476 nm
- Emis. peak ([2]; ethanol): 532 nm
- Abs. peak ([2]; water): 475 nm
- Emis. peak ([2]; water): 532 nm
- Quantum yield of fluorescence ([4]; acetonitrile): 0.62
- Quantum yield of fluorescence ([4]; ethanol): 0.64
- Quantum yield of fluorescence ([4]; water): 0.70
SMILES: CC1=N/C(=C\c2ccc(N)cc2B(F)F)C(=O)N1C [p-NH2-BDI-BF2, (Z)-4-(4-amino-2-(difluoroboryl)benzylidene)-1,2-dimethyl-1H-imidazole-5(4H)-one]

- shift of emission and absorption spectra with change of more polar solvent (water) to less polar (ethanol, acetonitrile) [2]: hypsochromic shift
- Abs. peak ([2]; acetonitrile): 483 nm
- Emis. peak ([2]; acetonitrile): 551 nm
- Abs. peak ([2]; ethanol): 498 nm
- Emis. peak ([2]; ethanol): 557 nm
- Abs. peak ([2]; water): 507 nm
- Emis. peak ([2]; water): 565 nm
- Quantum yield of fluorescence ([4]; acetonitrile): 0.49
- Quantum yield of fluorescence ([4]; ethanol): 0.31
- Quantum yield of fluorescence ([4]; water): 0.05
SMILES: CC1=N/C(=C\c2ccc(N(C)C)cc2B(F)F)C(=O)N1C [p-dimethylamino-BDI-BF2, (Z)-4-(4-(dimethylamino)-2-(difluoroboryl)benzylidene)-1,2-dimethyl-1H-imidazole-5(4H)-one]
